Assay results as given in PubChem BioAssay (NCI).
Where “and” joins values, the source holds several entries; their conditions need not be identical. Identical values can stand only once.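 Step 1: Grow cells in 96-well plates. Step 2: Expose to compound for 48 hours at 5 concentrations. Step 3: Interpolate endpoints linearly; if unreached, use highest concentration. GI50: concentration for 50% inhibition of growth. TGI: concentration producing complete growth inhibition.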

Legend:
Test in all cases: growth of human tumour cells (NCI), 48 h
LOX IMVI melanoma = test system: LOX IMVI melanoma
HT29 colon = test system: HT29 colon
NCI/ADR-RES ovarian = test system: NCI/ADR-RES ovarian
UACC-62 melanoma = test system: UACC-62 melanoma
SF-268 CNS = test system: SF-268 CNS
SK-MEL-2 melanoma = test system: SK-MEL-2 melanoma
KM12 colon = test system: KM12 colon
NCI-H522 lung = test system: NCI-H522 lung
OVCAR-4 ovarian = test system: OVCAR-4 ovarian
EKVX NSCLC = test system: EKVX NSCLC

SMILES	GI50 (LOX IMVI melanoma)	TGI (LOX IMVI melanoma)	GI50 (HT29 colon)	TGI (HT29 colon)	GI50 (NCI/ADR-RES ovarian)	TGI (NCI/ADR-RES ovarian)	GI50 (UACC-62 melanoma)	TGI (UACC-62 melanoma)	GI50 (SF-268 CNS)	TGI (SF-268 CNS)	GI50 (SK-MEL-2 melanoma)	TGI (SK-MEL-2 melanoma)	GI50 (KM12 colon)	TGI (KM12 colon)	GI50 (NCI-H522 lung)	TGI (NCI-H522 lung)	GI50 (OVCAR-4 ovarian)	TGI (OVCAR-4 ovarian)	GI50 (EKVX NSCLC)	TGI (EKVX NSCLC)
OC(CNC1CCCC1)Cn1c2ccccc2c2ccccc21 (stereo not drawn)	> 100 µM	> 100 µM	> 100 µM	> 100 µM	40.6 µM	> 100 µM	32.7 µM	> 100 µM	27 µM	80.4 µM	25.1 µM	68.6 µM	> 100 µM	> 100 µM	20 µM	82.2 µM	> 100 µM	> 100 µM	42.3 µM	> 100 µM
CN(C)CCNC(=O)c1cc2c3ccccc3[nH]c2c2ncccc12	4.14 µM	17.5 µM	5.27 µM	34.1 µM	22.5 µM	> 100 µM	13.4 µM	28 µM	6.37 µM	23.7 µM	9.15 µM	72.5 µM	12.8 µM	77.4 µM	7.08 µM	24.5 µM	8.48 µM	47.7 µM	7.81 µM	38.2 µM
CCOC(=O)C#Cc1c(CC(=O)OCC)nnn1[C@H]1O[C@@H](CO)[C@@H]2OC(C)(C)O[C@@H]21	1.35 µM	2.97 µM	2.13 µM	4.3 µM	11.5 µM	36.5 µM	1.84 µM	4.14 µM	16.3 µM	34.6 µM	18.4 µM	34.8 µM	16.4 µM	32.7 µM	2.12 µM	4.09 µM	2.11 µM	5.43 µM	17.3 µM	35.1 µM
COc1cc(-c2oc3c(OC)c(O)c(OC)c(O)c3c(=O)c2OC)ccc1O	–	> 100 µM	–	> 100 µM	–	> 100 µM	–	> 100 µM	–	–	–	74.9 µM	–	> 100 µM	–	66.9 µM	–	> 100 µM	–	> 100 µM
CC(C)C[C@@H]1NC(=O)[C@@H]2CCCN2C(=O)[C@@H]2CCCN2C(=O)[C@H](CC(C)C)NC(=O)[C@H](CO)NC(=O)[C@H](CCCCN)NC(=O)[C@H]([C@H](C)O)NC(=O)[C@@H]2CCCC[C@@H](NC1=O)C(=O)N[C@@H](Cc1ccccc1)C(=O)N1CCC[C@H]1C(=O)N[C@@H](CC(=O)O)C(=O)NCC(=O)N[C@@H](CCCN=C(N)N)C(=O)N2	> 50 µM	> 50 µM	> 50 µM	> 50 µM	> 50 µM	> 50 µM	> 50 µM	> 50 µM	> 50 µM	> 50 µM	> 50 µM	> 50 µM	> 50 µM	> 50 µM	> 50 µM	> 50 µM	> 50 µM	> 50 µM	> 50 µM	> 50 µM
Cc1ccc(S(=O)(=O)Nc2nc3ccccc3nc2Nc2ccc3nsnc3c2)cc1	3.67 µM and 3.89 µM	36.1 µM and > 100 µM	6.78 µM and 3.1 µM	> 100 µM	3.2 µM and 3.52 µM	> 100 µM	1.81 µM and 2.02 µM	10.4 µM and > 28.2 µM	3.93 µM and 4.35 µM	> 100 µM	2.87 µM and 3.22 µM	–	4.3 µM	> 100 µM	3.59 µM and 1.5 µM	31.1 µM and 4.47 µM	3.13 µM	> 100 µM	4.03 µM and 3.6 µM	> 100 µM
CCCCCN(CCCCC)CC(O)c1cc2c(c3ccccc13)CCCC2 (stereo not drawn)	3.71 µM and 4.93 µM	14.8 µM and 28.1 µM	1.35 µM and 2.22 µM	9.48 µM and 13.6 µM	6.44 µM and 12.3 µM	20.1 µM and 27.5 µM	3.31 µM and 11.2 µM	12.9 µM and 29.2 µM	11.3 µM and 16.5 µM	23.9 µM and 36.8 µM	2.86 µM and 11.5 µM	8.2 µM and 29 µM	3.34 µM and 6.95 µM	12.3 µM and 21.5 µM	2.02 µM and 3.24 µM	7.72 µM and 13.4 µM	3.16 µM and 9.19 µM	16 µM and 30.1 µM	4.92 µM	17.7 µM
Clc1ccc2c(c1)-c1ccccc1C1=NCCN12	1.59 µM	3.65 µM	1.17 µM	3.6 µM	1.6 µM	4.8 µM	1.6 µM	3.48 µM	1.91 µM	5.42 µM	2.02 µM	3.89 µM	2.56 µM	7.79 µM	1.52 µM	3.48 µM	1.99 µM	7.35 µM	2.25 µM	9.09 µM
O=C(CN1C(=O)c2ccccc2C1=O)C(O)CN1C(=O)c2ccccc2C1=O (stereo not drawn)	–	> 100 µM	–	> 100 µM	–	> 100 µM	–	> 100 µM	–	88.1 µM	–	> 100 µM	–	> 100 µM	–	> 100 µM	–	> 100 µM	–	> 100 µM
N#Cc1nc2cc(F)c(F)cc2nc1-c1ccc(Cl)cc1	1.32 µM	2.68 µM	7.8 µM	> 100 µM	10.3 µM	> 81.1 µM	0.645 µM	7.17 µM	8.07 µM	30.2 µM	8.41 µM	25.5 µM	51.9 µM	> 100 µM	13.5 µM	> 48.2 µM	> 62 µM	> 100 µM	10.4 µM	> 69.4 µM
Oc1ccc(N=Nc2ccc(N=Nc3ccccc3)cc2)cc1	0.285 µM	1.76 µM	2.86 µM	9.68 µM	3.67 µM	39.5 µM	0.874 µM	2.41 µM	1.63 µM	11.8 µM	2.29 µM	8.06 µM	2.98 µM	16.6 µM	0.832 µM	3.94 µM	8.43 µM	32.9 µM	2.49 µM	12.5 µM
C[C@@H]1C[C@@]2(O[C@@H]2C)C(=O)O[C@@H]2CCN3CC=C(COC(=O)[C@]1(C)O)[C@H]23	–	> 100 µM	–	> 100 µM	–	> 100 µM	–	> 100 µM	–	> 100 µM	–	> 100 µM	–	> 100 µM	–	> 100 µM	–	> 100 µM	–	> 100 µM
Clc1nc(Cl)c(Cc2ccccc2)c(Cl)n1	–	> 100 µM	–	25.3 µM	–	> 100 µM	–	16.9 µM	–	57.7 µM	–	> 100 µM	–	66.3 µM	–	3.04 µM	–	29.4 µM	–	33.2 µM
CSC1C(=O)c2ccccc2/C(=N/Nc2nc3ccccc3s2)C1C (stereo not drawn)	5.62 µM	11.6 µM	–	–	9.94 µM	25.5 µM	8.67 µM	16.5 µM	7.96 µM	19.1 µM	7.34 µM	18 µM	18.7 µM	> 50 µM	6.95 µM	26.3 µM	–	–	8.44 µM	18.4 µM
NCCCCN(Cc1nc2ccccc2[nH]1)[C@H]1CCCc2cccnc21	12 µM	38.2 µM	6.29 µM	34.1 µM	26.8 µM	> 100 µM	17.8 µM	47.4 µM	9.71 µM	97.3 µM	16.7 µM	45.1 µM	15.5 µM	> 100 µM	19.8 µM	> 64.8 µM	10.6 µM	> 82.7 µM	15.2 µM	> 100 µM
C/C=C/C=C\C1OC(O)([C@H](CC)C(=O)NC/C=C/C=C(\C)[C@H](OC)C(C)C2OC(\C=C/C=C/C=C(\C)C(=O)c3c(O)ccn(C)c3=O)[C@H](O)[C@@H]2O)C(O)C(O)C1(C)C (stereo partly drawn)	–	> 100 µM	–	> 100 µM	–	> 100 µM	–	> 100 µM	–	> 100 µM	–	> 100 µM	–	> 100 µM	–	> 100 µM	–	> 100 µM	–	> 100 µM
CS(=O)(=O)Nc1cc(-c2ccc3ncnc(Nc4ccc5c(cnn5Cc5ccccc5F)c4)c3c2)cnc1Cl	1.69 µM	4.71 µM	1.6 µM	> 47.3 µM	8.32 µM	> 100 µM	1.47 µM	5.37 µM	1.31 µM	9.18 µM	1.52 µM	4.65 µM	2.48 µM	8.1 µM	1.18 µM	8.03 µM	3 µM	> 100 µM	1.69 µM	9.53 µM
S=C(Nc1ccccc1)N(Cc1ccccc1)c1ccccc1	–	> 100 µM	–	85.9 µM	–	> 100 µM	–	70.7 µM	–	> 100 µM	–	41.2 µM	–	69.6 µM	–	62.3 µM	–	93.6 µM	–	58.4 µM
CC(C)CCc1c(Cl)nc(Cl)nc1Cl	–	11.8 µM	–	28.9 µM	–	> 100 µM	–	24.7 µM	–	> 100 µM	–	> 100 µM	–	–	–	9.89 µM	–	44.2 µM	–	63.2 µM
O=Cc1ccc(O)c2ncccc12	2.31 µM	> 54.5 µM	7.46 µM	34.7 µM	2.2 µM	> 29.4 µM	3.58 µM	27.6 µM	2.65 µM	> 100 µM	25.8 µM	> 96 µM	5.65 µM	40.5 µM	25.5 µM	90.8 µM	2.91 µM	> 100 µM	3.01 µM	23.9 µM
CN(C)c1ccc(O)c2c1C[C@H]1C[C@H]3[C@H](N(C)C)C(=O)C(C(N)=O)=C(O)[C@@]3(O)C(=O)C1=C2O	3.64 µM	31.9 µM	10.2 µM	> 100 µM	11.6 µM	> 100 µM	3.35 µM	16.9 µM	5.46 µM	> 100 µM	–	–	6.29 µM	27.4 µM	–	–	7.53 µM	> 100 µM	6.7 µM	> 100 µM
COc1cccc2c(=O)c3c(sc12)c(NCCN(C)C)nc1ccccc13	1.33 µM	2.76 µM	0.648 µM	2.12 µM	1.31 µM	3.03 µM	1.72 µM	3.24 µM	1.6 µM	3.57 µM	1.84 µM	3.82 µM	1.59 µM	3.1 µM	1.36 µM	3.02 µM	1.57 µM	3.68 µM	1.51 µM	2.99 µM
COc1cc(/C=C/C(=O)c2c(C)n([O-])c3ccc(Cl)cc3[n+]2=O)cc(OC)c1OC	90.2 µM	> 100 µM	> 100 µM	> 100 µM	90.9 µM	> 100 µM	> 100 µM	> 100 µM	15.4 µM	> 100 µM	> 100 µM	> 100 µM	> 100 µM	> 100 µM	> 100 µM	> 100 µM	> 100 µM	> 100 µM	25.2 µM	> 100 µM
O=C1/C(=C/c2ccc(Cl)cc2)COc2ccc(O)c(O)c21	0.33 µM	1.36 µM	1.92 µM	3.98 µM	1.6 µM	15.8 µM	1.27 µM	2.63 µM	1.44 µM	3.06 µM	2.51 µM	7.63 µM	1.36 µM	3.31 µM	0.182 µM	0.426 µM	1.33 µM	2.71 µM	1.49 µM	3.19 µM
O=C(NCP(=O)(O)O)c1cccnc1	–	> 100 µM	–	> 100 µM	–	> 100 µM	–	> 100 µM	–	–	–	> 100 µM	–	> 100 µM	–	–	–	> 100 µM	–	> 100 µM
C=C1CC[C@@H]2[C@](C)(COC(C)=O)[C@H](OC(C)=O)CC[C@@]2(C)[C@@H]1C/C=C1/C(=O)OC[C@H]1OC(C)=O	1.42 µM	2.85 µM	–	–	4.22 µM	19.8 µM	3.37 µM	13.5 µM	8.56 µM	22.8 µM	10.7 µM	26.3 µM	10.5 µM	27.7 µM	1.52 µM	3.63 µM	3.57 µM	15.4 µM	12.9 µM	25.6 µM
COC(=O)c1cc2oc(/C=C3\SC(=S)N(NC(C)=O)C3=O)cc2n1Cc1ccccc1	0.769 µM	1.6 µM	3.47 µM	12.8 µM	7.77 µM	19.5 µM	8.91 µM	16.6 µM	4.16 µM	27.6 µM	18.5 µM	> 50 µM	2.95 µM	12.8 µM	> 50 µM	> 50 µM	–	–	3.08 µM	15.3 µM
